Measurements: the NIST ThermoML archive (doi:10.1016/j.fluid.2018.09.026)
“And” between values parts separate entries of the source, which are not always exact repeats. Equal entries are not always repeated.

Details: Liquid; for mass density: Vibrating tube method; for viscosity: Vibrating wire viscometry

OCCOCCOCCO [triethylene glycol]
Details	mass density	viscosity
283.15 K, 100 kPa	1130.8 kg/m3	–
283.15 K, 660 kPa	1131 kg/m3	–
283.15 K, 1150 kPa	1131.2 kg/m3	–
283.15 K, 1570 kPa	1131.4 kg/m3	–
283.15 K, 2090 kPa	1131.6 kg/m3	–
283.15 K, 3090 kPa	1132 kg/m3	–
283.15 K, 5060 kPa	1132.9 kg/m3	–
283.15 K, 6940 kPa	1133.6 kg/m3	–
283.15 K, 10020 kPa	1134.9 kg/m3	–
283.15 K, 14850 kPa	1136.9 kg/m3	–
283.15 K, 19830 kPa	1138.9 kg/m3	–
283.15 K, 24700 kPa	1140.8 kg/m3	–
283.15 K, 29600 kPa	1142.7 kg/m3	–
283.15 K, 34510 kPa	1144.6 kg/m3	–
283.15 K, 39360 kPa	1146.4 kg/m3	–
283.15 K, 44290 kPa	1148.2 kg/m3	–
283.15 K, 49180 kPa	1150 kg/m3	–
283.15 K, 54110 kPa	1151.7 kg/m3	–
283.15 K, 58970 kPa	1153.4 kg/m3	–
283.15 K, 63860 kPa	1155.1 kg/m3	–
283.15 K, 68790 kPa	1156.8 kg/m3	–
293.15 K, 100 kPa	1122.9 kg/m3	–
293.15 K, 640 kPa	1123.1 kg/m3	–
293.15 K, 1090 kPa	1123.4 kg/m3	–
293.15 K, 1600 kPa	1123.6 kg/m3	–
293.15 K, 2140 kPa	1123.8 kg/m3	–
293.15 K, 3080 kPa	1124.2 kg/m3	–
293.15 K, 5030 kPa	1125.1 kg/m3	–
293.15 K, 7010 kPa	1125.9 kg/m3	–
293.15 K, 9950 kPa	1127.2 kg/m3	–
293.15 K, 14850 kPa	1129.3 kg/m3	–
293.15 K, 19770 kPa	1131.3 kg/m3	–
293.15 K, 24660 kPa	1133.3 kg/m3	–
293.15 K, 29510 kPa	1135.2 kg/m3	–
293.15 K, 34610 kPa	1137.2 kg/m3	–
293.15 K, 39370 kPa	1139.1 kg/m3	–
293.15 K, 44320 kPa	1141 kg/m3	–
293.15 K, 49130 kPa	1142.8 kg/m3	–
293.15 K, 54050 kPa	1144.6 kg/m3	–
293.15 K, 59060 kPa	1146.4 kg/m3	–
293.15 K, 63780 kPa	1148 kg/m3	–
293.35 K, 240 kPa	–	46.83 mPa·s [middle of 4 runs]
293.35 K, 1160 kPa	–	47.82 mPa·s
293.35 K, 1200 kPa	–	47.73 mPa·s
293.35 K, 1230 kPa	–	47.49 mPa·s
293.35 K, 1240 kPa	–	47.46 mPa·s and 47.21 mPa·s and 47.42 mPa·s
293.35 K, 2170 kPa	–	48.09 mPa·s
293.35 K, 2200 kPa	–	47.9 mPa·s
293.35 K, 2220 kPa	–	47.44 mPa·s
293.35 K, 2270 kPa	–	47.58 mPa·s
293.35 K, 5010 kPa	–	49.43 mPa·s
293.35 K, 5030 kPa	–	49.23 mPa·s
293.35 K, 5040 kPa	–	49.42 mPa·s
293.35 K, 10520 kPa	–	51.72 mPa·s
293.35 K, 10530 kPa	–	51.62 mPa·s
293.35 K, 10540 kPa	–	51.26 mPa·s
293.35 K, 10620 kPa	–	51.34 mPa·s
293.35 K, 10630 kPa	–	51.5 mPa·s
293.35 K, 20180 kPa	–	56.36 mPa·s
293.35 K, 20210 kPa	–	56.39 mPa·s and 56.29 mPa·s and 56.71 mPa·s
293.35 K, 29650 kPa	–	61.22 mPa·s
293.35 K, 29660 kPa	–	61.45 mPa·s
293.35 K, 62400 kPa	–	81.01 mPa·s
293.35 K, 62810 kPa	–	81.71 mPa·s
293.35 K, 63230 kPa	–	82.04 mPa·s
303 K, 190 kPa	–	28.88 mPa·s [middle of 5 runs]
303 K, 330 kPa	–	28.5 mPa·s and 29.08 mPa·s
303 K, 340 kPa	–	29.02 mPa·s
303 K, 1210 kPa	–	29.06 mPa·s
303 K, 1220 kPa	–	29.35 mPa·s and 29.62 mPa·s
303 K, 2000 kPa	–	29.4 mPa·s
303 K, 2020 kPa	–	29.29 mPa·s
303 K, 2030 kPa	–	29.32 mPa·s
303 K, 2100 kPa	–	29.31 mPa·s
303 K, 2150 kPa	–	29.15 mPa·s
303 K, 5250 kPa	–	30.07 mPa·s
303 K, 5270 kPa	–	30.07 mPa·s
303 K, 5280 kPa	–	30.31 mPa·s
303 K, 10160 kPa	–	31.63 mPa·s
303 K, 10170 kPa	–	31.41 mPa·s
303 K, 10190 kPa	–	31.65 mPa·s
303 K, 10210 kPa	–	31.52 mPa·s
303 K, 10220 kPa	–	31.49 mPa·s and 31.52 mPa·s
303 K, 20290 kPa	–	34.2 mPa·s
303 K, 20300 kPa	–	34.25 mPa·s
303 K, 20320 kPa	–	34.32 mPa·s
303 K, 20330 kPa	–	34.25 mPa·s and 34.3 mPa·s
303 K, 30260 kPa	–	37.03 mPa·s and 37.15 mPa·s and 37.36 mPa·s
303 K, 30270 kPa	–	37 mPa·s
303 K, 50510 kPa	–	43.39 mPa·s
303 K, 50590 kPa	–	43.57 mPa·s
303 K, 50660 kPa	–	43.63 mPa·s
303 K, 64010 kPa	–	47.91 mPa·s
303 K, 65190 kPa	–	48.95 mPa·s
303 K, 66350 kPa	–	49.26 mPa·s
303.15 K, 100 kPa	1115.2 kg/m3 and 1115.1 kg/m3	–
303.15 K, 630 kPa	1115.4 kg/m3	–
303.15 K, 1130 kPa	1115.6 kg/m3	–
303.15 K, 1620 kPa	1115.9 kg/m3	–
303.15 K, 2140 kPa	1116.1 kg/m3	–
303.15 K, 3070 kPa	1116.5 kg/m3	–
303.15 K, 5080 kPa	1117.4 kg/m3	–
303.15 K, 6960 kPa	1118.3 kg/m3	–
303.15 K, 9960 kPa	1119.6 kg/m3	–
303.15 K, 14840 kPa	1121.7 kg/m3	–
303.15 K, 19750 kPa	1123.8 kg/m3	–
303.15 K, 24670 kPa	1125.9 kg/m3	–
303.15 K, 29570 kPa	1127.9 kg/m3	–
303.15 K, 34500 kPa	1129.9 kg/m3	–
303.15 K, 39360 kPa	1131.9 kg/m3	–
303.15 K, 44300 kPa	1133.8 kg/m3	–
303.15 K, 49190 kPa	1135.7 kg/m3	–
303.15 K, 54090 kPa	1137.6 kg/m3	–
303.15 K, 58850 kPa	1139.3 kg/m3	–
303.15 K, 63890 kPa	1141.2 kg/m3	–
303.15 K, 68750 kPa	1142.9 kg/m3	–
313.15 K, 100 kPa	1107.4 kg/m3	–
313.15 K, 670 kPa	1107.6 kg/m3	–
313.15 K, 1130 kPa	1107.9 kg/m3	–
313.15 K, 1600 kPa	1108.1 kg/m3	–
313.15 K, 2080 kPa	1108.3 kg/m3	–
313.15 K, 3100 kPa	1108.8 kg/m3	–
313.15 K, 5030 kPa	1109.7 kg/m3	–
313.15 K, 7010 kPa	1110.6 kg/m3	–
313.15 K, 10010 kPa	1112 kg/m3	–
313.15 K, 14880 kPa	1114.2 kg/m3	–
313.15 K, 19750 kPa	1116.4 kg/m3	–
313.15 K, 24680 kPa	1118.6 kg/m3	–
313.15 K, 29560 kPa	1120.6 kg/m3	–
313.15 K, 34510 kPa	1122.7 kg/m3	–
313.15 K, 39330 kPa	1124.7 kg/m3	–
313.15 K, 44290 kPa	1126.7 kg/m3	–
313.15 K, 49180 kPa	1128.6 kg/m3	–
313.15 K, 54160 kPa	1130.6 kg/m3	–
313.15 K, 59000 kPa	1132.4 kg/m3	–
313.15 K, 63910 kPa	1134.3 kg/m3	–
313.15 K, 68840 kPa	1136 kg/m3	–
313.26 K, 170 kPa	–	18.68 mPa·s [middle of 4 runs]
313.26 K, 510 kPa	–	18.97 mPa·s and 18.84 mPa·s and 18.73 mPa·s
313.26 K, 520 kPa	–	18.83 mPa·s
313.26 K, 930 kPa	–	18.88 mPa·s [middle of 6 runs]
313.26 K, 4460 kPa	–	19.45 mPa·s
313.26 K, 4470 kPa	–	19.52 mPa·s [middle of 4 runs]
313.26 K, 9660 kPa	–	20.02 mPa·s
313.26 K, 9670 kPa	–	20.2 mPa·s and 20.18 mPa·s
313.26 K, 19980 kPa	–	22.07 mPa·s and 21.92 mPa·s
313.26 K, 19990 kPa	–	21.69 mPa·s
313.26 K, 29400 kPa	–	23.4 mPa·s and 23.28 mPa·s
313.26 K, 29410 kPa	–	23.3 mPa·s
313.26 K, 29530 kPa	–	23.21 mPa·s
313.26 K, 29540 kPa	–	23.53 mPa·s
313.26 K, 29550 kPa	–	23.54 mPa·s
313.26 K, 29570 kPa	–	23.18 mPa·s
313.26 K, 49800 kPa	–	26.84 mPa·s
313.26 K, 49830 kPa	–	27.18 mPa·s
313.26 K, 49920 kPa	–	27.22 mPa·s
313.26 K, 49950 kPa	–	26.89 mPa·s
313.26 K, 64360 kPa	–	29.73 mPa·s
313.26 K, 64840 kPa	–	30.3 mPa·s
313.26 K, 65380 kPa	–	30.08 mPa·s
313.26 K, 66900 kPa	–	30.18 mPa·s
323.15 K, 100 kPa	1099.6 kg/m3 and 1099.5 kg/m3	–
323.15 K, 590 kPa	1099.8 kg/m3	–
323.15 K, 1140 kPa	1100 kg/m3	–
323.15 K, 1600 kPa	1100.3 kg/m3	–
323.15 K, 2080 kPa	1100.5 kg/m3	–
323.15 K, 3020 kPa	1101 kg/m3	–
323.15 K, 5050 kPa	1101.9 kg/m3	–
323.15 K, 7000 kPa	1102.9 kg/m3	–
323.15 K, 9970 kPa	1104.3 kg/m3	–
323.15 K, 14870 kPa	1106.7 kg/m3	–
323.15 K, 19780 kPa	1108.9 kg/m3	–
323.15 K, 24700 kPa	1111.2 kg/m3	–
323.15 K, 29650 kPa	1113.3 kg/m3	–
323.15 K, 34470 kPa	1115.4 kg/m3	–
323.15 K, 39340 kPa	1117.5 kg/m3	–
323.15 K, 44250 kPa	1119.6 kg/m3	–
323.15 K, 49170 kPa	1121.6 kg/m3	–
323.15 K, 54080 kPa	1123.5 kg/m3	–
323.15 K, 58970 kPa	1125.5 kg/m3	–
323.15 K, 63800 kPa	1127.3 kg/m3	–
323.15 K, 68780 kPa	1129.2 kg/m3	–
333.15 K, 100 kPa	1091.7 kg/m3	–
333.15 K, 660 kPa	1092 kg/m3	–
333.15 K, 1110 kPa	1092.2 kg/m3	–
333.15 K, 1600 kPa	1092.5 kg/m3	–
